Source: patent US8722929B2, “N-[2-amino-4-(phenylmethoxy)phenyl] amides and related compounds as potassium channel modulators” (Valeant Pharmaceuticals International, priority 2006, dated 2014)
Like-named read-outs stand apart in the source and are kept apart here.

Target: T1, KCNQ 2/3 (Rattus norvegicus, UniProt O88943+O88944)
T1 construct: endogenous in cells; host or cells: PC-12 cells differentiated with NGF
Assay: KCNQ 2/3 activator assay by rubidium (Rb+) efflux from NGF-differentiated PC-12 cells
Format: cell-based
Procedure: Compounds of the following formula were assayed as KCNQ 2/3 activators by measuring rhubidium release.
PC-12 cells were grown at 37° C. and 5% CO2 in DMEM/F12 Medium supplemented with 10% horse serum, 5% fetal bovine serum, 2 mM glutamine, 100 U/ml penicillin, 100 U/ml streptomycin. They were plated in poly-D-lysine-coated 96-well cell culture microplates at a density of 40,000 cells/well and differentiated with 100 ng/ml NGF-7s for 2-5 days. For the assay, the medium was aspirated and the cells were washed once with 0.2 ml in wash buffer (25 mM Hepes, pH 7.4, 150 mM NaCl, 1 mM MgCl2, 0.8 mM NaH2PO4, 2 mM CaCl2). The cells were then loaded with 0.2 ml Rb^+ loading buffer (wash buffer plus 5.4 mM […], 5 mM glucose) and incubated at 37° C. for 2 h. Attached cells were quickly washed three times with buffer (same as Rb^+ loading buffer, but containing 5.4 mM KCl instead of RbCl) to remove extracellular Rb^+. Immediately following the wash, 0.2 ml of depolarization buffer (wash buffer plus 15 mM KCl) with or without compounds was added to the cells to activate efflux of potassium ion channels. After incubation for 10 min at room temperature, the supernatant was carefully removed and collected. Cells were lysed by the addition of 0.2 ml of lysis buffer (depolarization buffer plus 0.1% Triton X-100) and the cell lysates were also collected. If collected samples were not immediately analyzed for Rb^+ contents by atomic absorption spectroscopy (see below), they were stored at 4° C. without any negative effects on subsequent Rb^+ analysis.
The concentration of Rb^+ in the supernatants (Rb^+ sup) and cell lysates (Rb^+Lys) was quantified using an ICR8000 flame atomic absorption spectrometer (Aurora Biomed Inc., Vancouver, B.C.) under conditions defined by the manufacturer. One 0.05 ml samples were processed automatically from microtiter plates by dilution with an equal volume of Rb^+ sample analysis buffer and injection into an air-acetylene flame. The amount of Rb^+ in the sample was measured by absorption at 780 nm using a hollow cathode lamp as light source and a PMT detector. A calibration curve covering the range 0-5 mg/L Rb^+ in sample analysis buffer was generated with each set of plates. The percent Rb^+ efflux (F) was defined by F=[Rb^+Sup/(Rb^+Sup+Rb^+Lys)]×100%
The effect (E) of a compound was defined by: E=[(Fc−Fb)/(Fs−Fb)]×100% where the Fc is the efflux in the presence of compound in depolarization buffer, Fb is the efflux in basal buffer, and Fs is the efflux in depolarization buffer, and Fc is the efflux in the presence of compound in depolarization buffer. The effect (E) and compound concentration relationship was plotted to calculate an EC50 value, a compound's concentration for 50% of maximal Rb^+ efflux.

[1] = Rb+ efflux, PC-12 cells, depolarization buffer 15 mM KCl, 10 min, compounds of formula A, read-out: EC50
[2] = Rb+ efflux, PC-12 cells, depolarization buffer 15 mM KCl, 10 min, compounds of formula B, read-out: EC50

Row | Compound | EC50 [1] [nM] | EC50 [2] [nM] | also measured
1 | CC(C)(C)CC(=O)Nc1ccc(OCc2ccc(F)cc2)cc1N [I, N-(2-amino-4-(4-fluorobenzyloxy)phenyl)-3,3-dimethylbutanamide] | < 2000 | – | –
2 | CCOC(=O)Nc1ccc(NCc2ccc(F)cc2)cc1N [retigabine, N-[2-amino-4-(4-fluorobenzylamino)phenyl]carbamic acid, ethyl ester] | – | – | EC50: < 2000 nM; EC50 (Rb+ efflux, PC-12 cells, depolarization buffer 15 mM KCl, 10 min, compounds of formula B): < 2000 nM
3 | COC(=O)Nc1ccc(OCc2ccc(F)cc2)cc1N [V, Methyl 2-amino-4-(4-fluorobenzyloxy)phenylcarbamate] | – | < 15000 | –
4 | CCOC(=O)Nc1ccc(NCc2ccc(F)cc2)nc1N [flupirtine] | < 15000 | < 15000 | –
5 | CC(C)(C)CC(=O)Nc1ccc(OCc2ccc(Cl)s2)cc1N [III, N-(2-amino-4-((5-chlorothiophen-2-yl)methoxy)phenyl)-3,3-dimethylbutanamide] | < 2000 | – | –
6 | CC(C)(C)CC(=O)Nc1ccc(OCc2ccc(F)c(F)c2)cc1N [II, N-(2-amino-4-(3,4-difluorobenzyloxy)phenyl)-3,3-dimethylbutanamide] | < 2000 | – | –
